What was measured:
[1] = test system: TNFα release from human monocytic cell line U937; experiment: inhibition of PMA-stimulated TNFα release from U937 cells (ELISA); format: cell-based; conditions: U-937, PMA 50 nM, 18 hours, 37° C., read-out: IC50, concentration which inhibits the release of TNFα by 50% relative to control culture
Method: The ability of example compounds of the invention to inhibit the release of TNF was investigated. The assay is based on the ability of phorbol myristate acetate (PMA) to stimulate the release of TNF a from a human monocytic cell line, U937.
U937 cells cultured in RPMI 1640 medium+5% foetal calf serum are centifuged at 1000×g for 5 minutes and then resuspended in medium at 2×10^6 /ml. 1 ml of cell suspension is aliquoted into individual wells of 24-well plates. Test compounds are dissolved in dimethyl sulphoxide (DMSO) at a stock concentration of 100 mM, then diluted to 50× the final required concentration with RPMI 1640 medium. 20 μl of the diluted compounds are added to U937 cells in duplicate wells. TNF a release is stimulated by addition of PMA to the cells at a final concentration of 50 nM. Appropriate control cultures are set up in duplicate. The plates are incubated for 18 hours at 37° C., 5% CO2, then centrifuged at 1000×g for 5 minutes. A specific ELISA for TNFα obtained from British Bio-technology Products Limited, Abingdon, England is used to measure TNFα levels in the culture supernatants
The average concentration of test compound which inhibits the release of TNF a by 50% relative to the control culture was assessed.

stromelysin = stromelysin (Homo sapiens, UniProt P08254); experiment: stromelysin inhibition, 14C acetylated casein, procedure of Cawston et al; format: biochemical; conditions: 37°, 16 hours, pH 7.5
Chain of stromelysin (P08254 100-477): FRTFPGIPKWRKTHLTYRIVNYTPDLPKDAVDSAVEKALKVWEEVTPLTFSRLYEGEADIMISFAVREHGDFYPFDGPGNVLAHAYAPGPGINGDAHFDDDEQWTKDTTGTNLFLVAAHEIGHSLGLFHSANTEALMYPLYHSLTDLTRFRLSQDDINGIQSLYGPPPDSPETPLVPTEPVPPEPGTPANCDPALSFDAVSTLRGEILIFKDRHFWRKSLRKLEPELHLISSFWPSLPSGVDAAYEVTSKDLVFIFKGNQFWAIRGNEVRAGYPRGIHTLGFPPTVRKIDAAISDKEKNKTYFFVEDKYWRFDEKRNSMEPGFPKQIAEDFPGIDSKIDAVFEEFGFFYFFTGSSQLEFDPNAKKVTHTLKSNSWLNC
Method: The potency of compounds of Examples 1 to 6 to act as inhibitors of stromelysin was determined by the procedure of Cawston et al, (Biochem. J., 195, 159-165, 1981), hereby incorporated by reference, whereby a 1 mM solution of the compound being tested, or a dilution thereof, was incubated at 37° for 16 hours with stromelysin and ^14 C acetylate casein (buffered with 25 mM Hepes, pH 7.5 containing 5 mM CaCl2, 0.05% Brij 35 and 0.02% NaN3). The casein was acetylated ^14 C casein prepared by the method of Cawston et al (ibid).

collagenase = target: T1, collagenase (Homo sapiens, UniProt P03956); experiment: collagenase inhibition, 14C collagen, procedure of Cawston and Barrett; format: biochemical; conditions: 37°, 16 hours, pH 7.5
T1 sequence (P03956 100-469): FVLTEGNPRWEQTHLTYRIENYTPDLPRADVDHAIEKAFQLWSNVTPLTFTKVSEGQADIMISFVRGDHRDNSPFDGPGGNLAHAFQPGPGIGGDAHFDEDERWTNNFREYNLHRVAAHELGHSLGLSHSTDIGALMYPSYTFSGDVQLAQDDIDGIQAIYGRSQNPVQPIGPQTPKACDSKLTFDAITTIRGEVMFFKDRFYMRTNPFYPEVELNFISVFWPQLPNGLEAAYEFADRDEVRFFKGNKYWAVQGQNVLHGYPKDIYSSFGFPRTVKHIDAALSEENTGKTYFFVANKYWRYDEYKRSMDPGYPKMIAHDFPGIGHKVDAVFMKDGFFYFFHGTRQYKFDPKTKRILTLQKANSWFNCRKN
Description: The collagen was acetylated ^14 C collagen prepared by the method of Cawston and Murphy, (Methods in Enzymology, 80, 711, 1981), hereby incorporated by reference. The samples were centrifuged to sediment undigested collagen, and an aliquot of the radioactive supernatant removed for assay on a scintillation counter as a measure of hydrolysis.

TNF = experiment: inhibition of endotoxin (LPS) induced TNF production in vivo, serum TNF in anaesthetised rats; set-up: species or system male CD rats; conditions: rat, 10 mg/kg intravenous 15 minutes prior to LPS 50 μg/kg, infusion maintained 2 hours
Method: The compound of Example 1 was assessed for its ability to inhibit release of endotoxin induced TNF production in vivo.
Male Male CD rats (Charles River, UK) weighing between 300 g-400 g were anaesthetised with an intra-peritoneal injection of a mixture of 62.5 mg·kg^-1 thiopental and 22.5 mg·kg^-1 sodium pentobarbitone (Thiopental, Sigma Chemical Co., UK; Sodium pentobarbitone (Sagatal), May and Baker., UK). The trachea was exposed and cannulated to allow spontaneous respiration through a patent airway. The left jugular vein was exposed and cannulated for the administration of LPS. The right femoral artery was exposed and cannulated for withdrawal of blood samples.
Blood samples (1 ml) were removed just prior to bolus administration of either LPS (E. coli serotype 0111:b4, Difco Laboratories, USA) or saline (NaCL 0.9% w/v) and at intervals of 1 hour and 2 hours after LPS. Removed blood was replaced with equal amounts of saline.
The peak of TNF release was at the 1 hour timepoint. […] levels were expressed in units/ml where 1 unit is the equivalent of 1 pg of mouse TNFα.
Rat serum TNF levels were measured using a mouse TNFα reference standard. The commercial ELISA kits were from Genzyme.
The compound of example 1 was administered intravenously to aneasthetised rats at a dose of 10 mg·kg^-1, 15 minutes prior to LPS administration. […]

Row | Structure (SMILES) | IC50 [1] | IC50 (stromelysin) | IC50 (collagenase) | reduction of LPS-induced release of TNF, 1 hour timepoint (TNF; 1 hour after LPS) | reduction of LPS-induced release of TNF, 2 hour timepoint (TNF; 2 hours after LPS)
1 | CNC(=O)[C@H](CCCCNC(=O)OC(C)(C)C)NC(=O)[C@H](CC(C)C)[C@H](CSc1cccs1)C(=O)NO [Example 4, N^2-[4-(N-Hydroxyamino)-3S-(2-thienythiomethyl)-2R-isobutylsuccinyl]-N^6-tert-butyloxycarbonyl-L-lysine-N^1-methylamide] | < 50000 nM | 20 nM | – | – | –
2 | CNC(=O)[C@H](CCCCN(CSc1ccc(O)cc1)C(=O)OC(C)(C)C)NC(=O)[C@H](CC(C)C)[C@H](CSc1ccc(O)cc1)C(=O)NO [Example 3, N^2-[4-(N-Hydroxyamino)-3S-(4-hydroxyphenylthiomethyl)-2R-isobutylsuccinyl]-N^6-tert-butyloxycarbonyl-N^6-(4-hydroxyphenylthiomethyl)-L-lysine-N^1-methylamide] | < 50000 nM | 50 nM | 30 nM | – | –
3 | CNC(=O)[C@H](CCCCNC(=O)OC(C)(C)C)NC(=O)[C@H](CC(C)C)[C@H](CSc1ccc(O)cc1)C(=O)NO [Example 2, N^2-[4-(N-Hydroxyamino)-3S-(4-hydroxyphenylthiomethyl)-2R-isobutylsuccinyl]-N^6-tert-butyloxycarbonyl-L-lysine-N^1-methylamide] | < 50000 nM | 15 nM | 15 nM | – | –
4 | CNC(=O)[C@H](CCCCNC(C)=O)NC(=O)[C@H](CC(C)C)[C@H](CSc1ccc(O)cc1)C(=O)NO [Example 1, N^2-[4-(N-Hydroxyamino)-3S-(4-hydroxyphenylthiomethyl)-2R-isobutylsuccinyl]-N^6-acetyl-L-lysine-N^1-methylamide] | < 50000 nM | – | – | more than 50% | more than 50%
5 | CNC(=O)CC[C@H](NC(=O)[C@H](CC(C)C)[C@H](CSc1ccc(O)cc1)C(=O)NO)C(=O)NC [Example 6, N^2-[4-(N-Hydroxyamino)-3S-(4-hydroxyphenylthiomethyl)-2R-isobutylsuccinyl]-L-glutamine-N^1,N^5-dimethylamide] | < 50000 nM | 70 nM | 6 nM | – | –
6 | CNC(=O)[C@@H](NC(=O)[C@H](CC(C)C)[C@H](CSc1ccc(O)cc1)C(=O)NO)[C@@H](C)OC(C)(C)C [Example 5, N^2-[4-(N-Hydroxyamino)-3S-(4-hydroxyphenylthiomethyl)-2R-isobutylsuccinyl]-O-tert-butyl-L-threonine-N^1-methylamide] | – | 40 nM | 5 nM | – | –

From patent publication US5821262A, “Hydroxamic acid derivatives as inhibitors of cytokine production” (British Biotech Pharmaceuticals Limited, priority 1993, dated 1998)
